Assay results published in PubChem BioAssay (NCI).
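Results reflect a 48-hour exposure of cells in 96-well plates to compound at five concentrations. TGI: concentration producing complete growth inhibition.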

What was measured:
Test in all cases: NCI tumour cell line growth inhibition, 48 h
786-0 renal = test system: 786-0 renal
A498 renal = test system: A498 renal
ACHN renal = test system: ACHN renal
BT-549 breast = test system: BT-549 breast
CAKI-1 renal = test system: CAKI-1 renal
CCRF-CEM leukemia = test system: CCRF-CEM leukemia
COLO 205 colon = test system: COLO 205 colon
DU-145 prostate = test system: DU-145 prostate
EKVX NSCLC = test system: EKVX NSCLC
HCC-2998 colon = test system: HCC-2998 colon
HCT-116 colon = test system: HCT-116 colon
HCT-15 colon = test system: HCT-15 colon
HL-60(TB) leukemia = test system: HL-60(TB) leukemia
HOP-62 NSCLC = test system: HOP-62 NSCLC
HOP-92 NSCLC = test system: HOP-92 NSCLC
HS 578T breast = test system: HS 578T breast
HT29 colon = test system: HT29 colon
IGROV1 ovarian = test system: IGROV1 ovarian
K-562 leukemia = test system: K-562 leukemia
KM12 colon = test system: KM12 colon
LOX IMVI melanoma = test system: LOX IMVI melanoma
M14 melanoma = test system: M14 melanoma
MALME-3M melanoma = test system: MALME-3M melanoma
MCF7 breast = test system: MCF7 breast
MDA-MB-231 breast = test system: MDA-MB-231 breast
MDA-MB-435 = test system: MDA-MB-435
MDA-N = test system: MDA-N
MOLT-4 leukemia = test system: MOLT-4 leukemia
NCI-H226 lung = test system: NCI-H226 lung
NCI-H23 lung = test system: NCI-H23 lung
NCI-H460 lung = test system: NCI-H460 lung
NCI-H522 lung = test system: NCI-H522 lung
NCI/ADR-RES ovarian = test system: NCI/ADR-RES ovarian
OVCAR-3 ovarian = test system: OVCAR-3 ovarian
OVCAR-4 ovarian = test system: OVCAR-4 ovarian
OVCAR-5 ovarian = test system: OVCAR-5 ovarian
OVCAR-8 ovarian = test system: OVCAR-8 ovarian
PC-3 prostate = test system: PC-3 prostate
RPMI-8226 leukemia = test system: RPMI-8226 leukemia
RXF 393 renal = test system: RXF 393 renal
SF-268 CNS = test system: SF-268 CNS
SF-295 CNS = test system: SF-295 CNS
SF-539 CNS = test system: SF-539 CNS
SK-MEL-2 melanoma = test system: SK-MEL-2 melanoma
SK-MEL-28 melanoma = test system: SK-MEL-28 melanoma
SK-OV-3 ovarian = test system: SK-OV-3 ovarian
SN12C renal = test system: SN12C renal
SNB-19 CNS = test system: SNB-19 CNS
SNB-75 CNS = test system: SNB-75 CNS
SW-620 colon = test system: SW-620 colon
T-47D breast = test system: T-47D breast
TK-10 renal = test system: TK-10 renal
U251 CNS = test system: U251 CNS
UACC-257 melanoma = test system: UACC-257 melanoma
UACC-62 melanoma = test system: UACC-62 melanoma
A549 NSCLC = test system: A549 NSCLC
SK-MEL-5 melanoma = test system: SK-MEL-5 melanoma
UO-31 renal = test system: UO-31 renal

SMILES: O=c1cc(N2CCOCC2)[nH]c(=O)n1-c1cccc(Cl)c1
- TGI (786-0 renal): > 100 µM
- TGI (A498 renal): > 100 µM
- TGI (ACHN renal): > 100 µM
- TGI (BT-549 breast): > 100 µM
- TGI (CAKI-1 renal): > 100 µM
- TGI (CCRF-CEM leukemia): > 100 µM
- TGI (COLO 205 colon): > 100 µM
- TGI (DU-145 prostate): > 100 µM
- TGI (EKVX NSCLC): > 100 µM
- TGI (HCC-2998 colon): > 100 µM
- TGI (HCT-116 colon): > 100 µM
- TGI (HCT-15 colon): > 100 µM
- TGI (HL-60(TB) leukemia): > 100 µM
- TGI (HOP-62 NSCLC): > 100 µM
- TGI (HOP-92 NSCLC): > 100 µM
- TGI (HS 578T breast): > 100 µM
- TGI (HT29 colon): > 100 µM
- TGI (IGROV1 ovarian): > 100 µM
- TGI (K-562 leukemia): > 100 µM
- TGI (KM12 colon): > 100 µM
- TGI (LOX IMVI melanoma): > 100 µM
- TGI (M14 melanoma): > 100 µM
- TGI (MALME-3M melanoma): > 100 µM
- TGI (MCF7 breast): > 100 µM
- TGI (MDA-MB-231 breast): > 100 µM
- TGI (MDA-MB-435): > 100 µM
- TGI (MDA-N): > 100 µM
- TGI (MOLT-4 leukemia): > 100 µM
- TGI (NCI-H226 lung): > 100 µM
- TGI (NCI-H23 lung): > 100 µM
- TGI (NCI-H460 lung): > 100 µM
- TGI (NCI-H522 lung): > 100 µM
- TGI (NCI/ADR-RES ovarian): > 100 µM
- TGI (OVCAR-3 ovarian): > 100 µM
- TGI (OVCAR-4 ovarian): > 100 µM
- TGI (OVCAR-5 ovarian): > 100 µM
- TGI (OVCAR-8 ovarian): > 100 µM
- TGI (PC-3 prostate): > 100 µM
- TGI (RPMI-8226 leukemia): > 100 µM
- TGI (RXF 393 renal): > 100 µM
- TGI (SF-268 CNS): > 100 µM
- TGI (SF-295 CNS): > 100 µM
- TGI (SF-539 CNS): > 100 µM
- TGI (SK-MEL-2 melanoma): > 100 µM
- TGI (SK-MEL-28 melanoma): > 100 µM
- TGI (SK-OV-3 ovarian): > 100 µM
- TGI (SN12C renal): > 100 µM
- TGI (SNB-19 CNS): > 100 µM
- TGI (SNB-75 CNS): > 100 µM
- TGI (SW-620 colon): > 100 µM
- TGI (T-47D breast): > 100 µM
- TGI (TK-10 renal): > 100 µM
- TGI (U251 CNS): > 100 µM
- TGI (UACC-257 melanoma): > 100 µM
- TGI (UACC-62 melanoma): > 100 µM

SMILES: N=c1c2c(=S)n(-c3ccccc3)c(=S)n(-c3ccccc3)c2nc(SCCCN2CCCCC2)n1-c1ccccc1
- TGI (786-0 renal): 2.28 µM
- TGI (A498 renal): 7.11 µM
- TGI (A549 NSCLC): 3.78 µM
- TGI (ACHN renal): 3.08 µM
- TGI (BT-549 breast): 3.41 µM
- TGI (CAKI-1 renal): 3.15 µM
- TGI (CCRF-CEM leukemia): 1.41 µM
- TGI (COLO 205 colon): 3.19 µM
- TGI (DU-145 prostate): 3.03 µM
- TGI (EKVX NSCLC): 3.47 µM
- TGI (HCC-2998 colon): 2.82 µM
- TGI (HCT-116 colon): 3.1 µM
- TGI (HCT-15 colon): 3.23 µM
- TGI (HL-60(TB) leukemia): 3.81 µM
- TGI (HOP-62 NSCLC): 3.38 µM
- TGI (HOP-92 NSCLC): 3.28 µM
- TGI (HS 578T breast): > 100 µM
- TGI (HT29 colon): 4.32 µM
- TGI (IGROV1 ovarian): 3.09 µM
- TGI (KM12 colon): 3.44 µM
- TGI (M14 melanoma): 3.1 µM
- TGI (MALME-3M melanoma): 3.31 µM
- TGI (MCF7 breast): 1.3 µM
- TGI (MDA-MB-231 breast): 3.05 µM
- TGI (MDA-MB-435): 3.14 µM
- TGI (MDA-N): 3.33 µM
- TGI (NCI-H226 lung): 6.84 µM
- TGI (NCI-H23 lung): 3.37 µM
- TGI (NCI-H460 lung): 4.3 µM
- TGI (NCI-H522 lung): 2.54 µM
- TGI (NCI/ADR-RES ovarian): 8.97 µM
- TGI (OVCAR-3 ovarian): 3.02 µM
- TGI (OVCAR-4 ovarian): 3.23 µM
- TGI (OVCAR-5 ovarian): 26.2 µM
- TGI (OVCAR-8 ovarian): 3.36 µM
- TGI (PC-3 prostate): 3.03 µM
- TGI (RPMI-8226 leukemia): > 100 µM
- TGI (RXF 393 renal): 3.26 µM
- TGI (SF-268 CNS): 3.55 µM
- TGI (SF-295 CNS): 12.6 µM
- TGI (SF-539 CNS): 16.7 µM
- TGI (SK-MEL-2 melanoma): 3.77 µM
- TGI (SK-MEL-28 melanoma): 5.1 µM
- TGI (SK-MEL-5 melanoma): 3.63 µM
- TGI (SK-OV-3 ovarian): 5.34 µM
- TGI (SN12C renal): 3.28 µM
- TGI (SNB-19 CNS): 9.41 µM
- TGI (SNB-75 CNS): 3.28 µM
- TGI (SW-620 colon): 5.15 µM
- TGI (T-47D breast): 5.78 µM
- TGI (TK-10 renal): 3.08 µM
- TGI (U251 CNS): 3.12 µM
- TGI (UACC-257 melanoma): 3.31 µM
- TGI (UACC-62 melanoma): 3.03 µM

SMILES: COc1ccc2c(c1)/C(=C\c1c(-c3ccccc3)nc3n1CCS3)C(=O)N2
- TGI (786-0 renal): 28.6 µM
- TGI (A498 renal): 21.3 µM
- TGI (A549 NSCLC): 55.9 µM
- TGI (ACHN renal): 56.8 µM
- TGI (BT-549 breast): 32.7 µM
- TGI (CAKI-1 renal): 37.4 µM
- TGI (CCRF-CEM leukemia): 26.9 µM
- TGI (COLO 205 colon): 11.2 µM
- TGI (DU-145 prostate): 60 µM
- TGI (EKVX NSCLC): 48 µM
- TGI (HCC-2998 colon): 22.9 µM
- TGI (HCT-116 colon): 18.2 µM
- TGI (HCT-15 colon): 40.6 µM
- TGI (HL-60(TB) leukemia): 11.4 µM
- TGI (HOP-62 NSCLC): 27.6 µM
- TGI (HOP-92 NSCLC): 30.8 µM
- TGI (HS 578T breast): 38.7 µM
- TGI (HT29 colon): 16 µM
- TGI (IGROV1 ovarian): 21.4 µM
- TGI (K-562 leukemia): 17 µM
- TGI (KM12 colon): 19.6 µM
- TGI (LOX IMVI melanoma): 20.6 µM
- TGI (M14 melanoma): 23 µM
- TGI (MALME-3M melanoma): 30.7 µM
- TGI (MCF7 breast): 29 µM
- TGI (MDA-MB-231 breast): 17.9 µM
- TGI (MDA-MB-435): 7.19 µM
- TGI (MDA-N): 5.62 µM
- TGI (MOLT-4 leukemia): 16.9 µM
- TGI (NCI-H23 lung): 33.4 µM
- TGI (NCI-H460 lung): 14.4 µM
- TGI (NCI-H522 lung): 24.4 µM
- TGI (NCI/ADR-RES ovarian): 35.4 µM
- TGI (OVCAR-3 ovarian): 15.6 µM
- TGI (OVCAR-5 ovarian): 51.8 µM
- TGI (OVCAR-8 ovarian): 47.5 µM
- TGI (PC-3 prostate): 17.2 µM
- TGI (RPMI-8226 leukemia): 32.2 µM
- TGI (RXF 393 renal): 34.3 µM
- TGI (SF-268 CNS): 28.1 µM
- TGI (SF-295 CNS): 15.1 µM
- TGI (SF-539 CNS): 19.1 µM
- TGI (SK-MEL-2 melanoma): 20.2 µM
- TGI (SK-MEL-28 melanoma): 27.7 µM
- TGI (SK-MEL-5 melanoma): 17 µM
- TGI (SK-OV-3 ovarian): 34.5 µM
- TGI (SN12C renal): 27.6 µM
- TGI (SNB-19 CNS): > 100 µM
- TGI (SNB-75 CNS): 36.8 µM
- TGI (SW-620 colon): 16.3 µM
- TGI (T-47D breast): 61.6 µM
- TGI (TK-10 renal): 27.8 µM
- TGI (U251 CNS): 20.3 µM
- TGI (UACC-257 melanoma): 27.4 µM
- TGI (UACC-62 melanoma): 18.2 µM
- TGI (UO-31 renal): 34.2 µM
